Earlier results, collected in patent US20130109746A1, “COMPOSITION COMPRISING ELLAGIC ACID AND A PARTICULAR CATIONIC SURFACTANT, AND COSMETIC USE THEREOF” (L'OREAL S.A., priority 2010, published 2013).

Conditions: in water and in the solvents and oils commonly used in cosmetic compositions

In the case of `O=c1oc2c(O)c(O)cc3c(=O)oc4c(O)c(O)cc1c4c23` [ellagic acid, 2,3,7,8-tetrahydroxy(1)benzopyrano(5,4,3-cde)(1)benzopyran-5,10-dione], the solubility is given as “very sparingly soluble”.
